Calls of active or inactive are those of the source. The calls are words filed in the database; no cut-off is given here.
Assays:
[1] = target: T1, cAMP-dependent protein kinase catalytic subunit alpha (Homo sapiens, UniProt P17612); experiment: Binding affinity to human recombinant PKAC-alpha assessed as inactivation constant measured upto 60 mins by Western blot analysis
[2] = target: T1, cAMP-dependent protein kinase catalytic subunit alpha; experiment: Binding affinity to human recombinant PKAC-alpha assessed as reduction in TGLI signal at 10 uM pretreated with compound followed by ARC-1063 fluorescent probe addition by time-gated luminescence intensity based displacement assay; conditions: time 60-480 min, TDE = time-dependent effect
[3] = target: T1, cAMP-dependent protein kinase catalytic subunit alpha; experiment: Covalent inhibition of human recombinant PKAC-alpha assessed as inhibition constant
[4] = target: T1, cAMP-dependent protein kinase catalytic subunit alpha; experiment: Binding affinity to human recombinant PKAC-alpha assessed as inactivation constant incubated for 1 hr by time-gated luminescence intensity based displacement assay
[5] = target: RAC-beta serine/threonine-protein kinase (Homo sapiens) (UniProt P31751); experiment: Inhibition of human PKB-beta assessed as residual activity at 0.1 uM in presence of ATP by radiometric filter-binding assay relative to control
Sequence of RAC-beta serine/threonine-protein kinase (Homo sapiens) (P31751 whole entry): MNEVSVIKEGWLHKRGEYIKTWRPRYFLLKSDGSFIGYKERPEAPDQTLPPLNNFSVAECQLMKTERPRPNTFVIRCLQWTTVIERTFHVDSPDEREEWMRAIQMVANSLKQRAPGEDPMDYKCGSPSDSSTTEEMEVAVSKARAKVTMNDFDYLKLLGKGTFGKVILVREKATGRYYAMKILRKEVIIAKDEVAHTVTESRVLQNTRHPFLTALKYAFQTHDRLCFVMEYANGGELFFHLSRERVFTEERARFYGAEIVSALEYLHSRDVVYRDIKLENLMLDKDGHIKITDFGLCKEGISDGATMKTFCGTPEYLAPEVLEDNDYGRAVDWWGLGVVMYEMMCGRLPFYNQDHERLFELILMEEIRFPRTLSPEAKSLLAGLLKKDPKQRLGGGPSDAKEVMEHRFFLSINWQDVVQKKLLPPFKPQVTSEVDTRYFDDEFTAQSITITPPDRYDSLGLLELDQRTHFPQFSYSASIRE

[6] = target: T1, cAMP-dependent protein kinase catalytic subunit alpha; experiment: Displacement of ARC-1063 fluorescent probe from recombinant human PKAC-alpha assessed as binding constant (kon) preincubated for 1 hr followed by photoluminescent probe addition by time-gated luminescence intensity based assay
[7] = target: RAC-alpha serine/threonine-protein kinase (Homo sapiens) (UniProt P31749); experiment: Inhibition of human PKBalpha assessed as residual activity at 0.1 uM in presence of ATP by radiometric filter-binding assay relative to control
Sequence of RAC-alpha serine/threonine-protein kinase (Homo sapiens) (P31749 whole entry): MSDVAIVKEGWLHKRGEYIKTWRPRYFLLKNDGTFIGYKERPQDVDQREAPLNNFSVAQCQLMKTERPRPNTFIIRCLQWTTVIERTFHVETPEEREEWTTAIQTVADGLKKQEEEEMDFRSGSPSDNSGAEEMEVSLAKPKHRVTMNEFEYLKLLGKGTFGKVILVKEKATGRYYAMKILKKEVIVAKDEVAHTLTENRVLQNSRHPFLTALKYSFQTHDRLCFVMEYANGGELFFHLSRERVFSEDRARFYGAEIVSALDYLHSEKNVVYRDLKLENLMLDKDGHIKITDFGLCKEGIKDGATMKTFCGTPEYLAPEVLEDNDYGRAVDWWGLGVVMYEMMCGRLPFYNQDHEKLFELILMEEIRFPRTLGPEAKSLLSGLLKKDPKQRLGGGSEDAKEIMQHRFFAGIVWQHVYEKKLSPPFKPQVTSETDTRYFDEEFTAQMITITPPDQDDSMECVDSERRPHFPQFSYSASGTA

[8] = target: T2, Aurora kinase A (Homo sapiens) (UniProt O14965); experiment: Inhibition of N-terminal 6His-tagged active recombinant full length human Aurora A-mediated phosphorylation assessed as residual activity at 100 nM relative to control
T2 sequence (whole entry): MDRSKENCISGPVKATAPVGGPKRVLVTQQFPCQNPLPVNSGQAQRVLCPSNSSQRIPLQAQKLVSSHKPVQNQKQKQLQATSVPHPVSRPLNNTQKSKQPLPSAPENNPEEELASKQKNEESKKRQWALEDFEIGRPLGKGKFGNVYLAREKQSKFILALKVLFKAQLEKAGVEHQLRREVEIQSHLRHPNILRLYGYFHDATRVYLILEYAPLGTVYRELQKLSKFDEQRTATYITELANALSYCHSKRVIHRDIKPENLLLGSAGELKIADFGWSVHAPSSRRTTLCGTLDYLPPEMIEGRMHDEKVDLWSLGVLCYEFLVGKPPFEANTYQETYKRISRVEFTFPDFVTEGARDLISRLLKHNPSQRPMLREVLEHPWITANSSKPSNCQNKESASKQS

[9] = target: Aurora kinase B (Homo sapiens) (UniProt Q96GD4); experiment: Inhibition of N-terminal 6His-tagged active recombinant full length human Aurora B-mediated phosphorylation assessed as residual activity at 100 nM relative to control
Sequence of Aurora kinase B (Homo sapiens) (Q96GD4 whole entry): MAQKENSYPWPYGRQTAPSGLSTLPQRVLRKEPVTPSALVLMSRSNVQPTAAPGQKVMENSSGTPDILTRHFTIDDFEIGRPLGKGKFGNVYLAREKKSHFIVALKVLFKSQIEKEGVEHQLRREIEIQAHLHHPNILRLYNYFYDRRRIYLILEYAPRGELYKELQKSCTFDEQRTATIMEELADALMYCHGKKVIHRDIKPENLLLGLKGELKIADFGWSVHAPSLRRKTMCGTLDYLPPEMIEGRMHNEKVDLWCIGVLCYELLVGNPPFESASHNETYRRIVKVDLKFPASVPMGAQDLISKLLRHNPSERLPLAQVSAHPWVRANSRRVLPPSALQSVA

[10] = target: T1, cAMP-dependent protein kinase catalytic subunit alpha; experiment: Inhibition of recombinant human PKAC-alpha assessed as residual activity at 0.1 uM in presence of ATP by radiometric filter-binding assay relative to control
[11] = target: T1, cAMP-dependent protein kinase catalytic subunit alpha; experiment: Inhibition of ARC-1063 fluorescent probe binding to recombinant human PKAC-alpha incubated for 1 hr by time-gated luminescence intensity based displacement assay
[12] = target: T1, cAMP-dependent protein kinase catalytic subunit alpha; experiment: Displacement of ARC-1063 fluorescent probe from recombinant human PKAC-alpha assessed as dissociation equilibrium constant preincubated for 1 hr followed by photoluminescent probe addition by time-gated luminescence intensity based assay
[13] = organism: Homo sapiens; experiment: Selectivity index, ratio of Kd for N-terminal 6His-tagged active recombinant human spiked Akt3 S472D mutant (117 to end residues) to Kd for human recombinant PKACalpha
[14] = target: T1, cAMP-dependent protein kinase catalytic subunit alpha; experiment: Displacement of ARC-1063 fluorescent probe from recombinant human PKAC-alpha assessed as dissociation half life preincubated for 1 hr followed by photoluminescent probe addition by time-gated luminescence intensity based assay
[15] = target: Ribosomal protein S6 kinase alpha-5 (Homo sapiens) (UniProt O75582); experiment: Inhibition of N-terminal 6His-tagged recombinant human spiked MSK1 (2 to end residues) assessed as residual activity relative to control
Sequence of Ribosomal protein S6 kinase alpha-5 (Homo sapiens) (O75582 whole entry, looked up, the tested form may be a part): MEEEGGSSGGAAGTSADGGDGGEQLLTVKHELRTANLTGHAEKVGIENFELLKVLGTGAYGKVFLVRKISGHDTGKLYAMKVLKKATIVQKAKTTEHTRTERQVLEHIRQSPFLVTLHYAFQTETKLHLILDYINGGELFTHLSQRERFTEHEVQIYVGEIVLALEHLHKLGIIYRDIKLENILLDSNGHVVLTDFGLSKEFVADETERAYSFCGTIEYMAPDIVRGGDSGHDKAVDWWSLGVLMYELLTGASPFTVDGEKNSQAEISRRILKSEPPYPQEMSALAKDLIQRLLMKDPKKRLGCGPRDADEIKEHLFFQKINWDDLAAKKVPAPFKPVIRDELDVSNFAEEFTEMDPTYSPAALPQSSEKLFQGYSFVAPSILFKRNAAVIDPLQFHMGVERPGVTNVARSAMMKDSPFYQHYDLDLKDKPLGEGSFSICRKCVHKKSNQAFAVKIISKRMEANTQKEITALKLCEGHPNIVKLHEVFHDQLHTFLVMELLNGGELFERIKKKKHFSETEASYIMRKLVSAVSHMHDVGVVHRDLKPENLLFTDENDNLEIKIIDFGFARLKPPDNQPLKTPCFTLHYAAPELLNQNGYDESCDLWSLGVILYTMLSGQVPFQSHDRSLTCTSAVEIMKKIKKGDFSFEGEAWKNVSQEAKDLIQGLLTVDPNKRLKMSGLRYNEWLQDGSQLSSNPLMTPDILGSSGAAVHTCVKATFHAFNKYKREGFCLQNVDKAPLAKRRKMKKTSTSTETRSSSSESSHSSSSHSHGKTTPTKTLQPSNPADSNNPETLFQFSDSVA

[16] = target: Rho-associated protein kinase 2 (Homo sapiens) (UniProt O75116); experiment: Inhibition of recombinant human GST-tagged ROCK-2 catalytic domain (1 to 552 residues) assessed as residual activity at 0.1 uM in presence of ATP by radiometric filter-binding assay relative to control
Sequence of Rho-associated protein kinase 2 (Homo sapiens) (O75116 whole entry, looked up, the tested form may be a part): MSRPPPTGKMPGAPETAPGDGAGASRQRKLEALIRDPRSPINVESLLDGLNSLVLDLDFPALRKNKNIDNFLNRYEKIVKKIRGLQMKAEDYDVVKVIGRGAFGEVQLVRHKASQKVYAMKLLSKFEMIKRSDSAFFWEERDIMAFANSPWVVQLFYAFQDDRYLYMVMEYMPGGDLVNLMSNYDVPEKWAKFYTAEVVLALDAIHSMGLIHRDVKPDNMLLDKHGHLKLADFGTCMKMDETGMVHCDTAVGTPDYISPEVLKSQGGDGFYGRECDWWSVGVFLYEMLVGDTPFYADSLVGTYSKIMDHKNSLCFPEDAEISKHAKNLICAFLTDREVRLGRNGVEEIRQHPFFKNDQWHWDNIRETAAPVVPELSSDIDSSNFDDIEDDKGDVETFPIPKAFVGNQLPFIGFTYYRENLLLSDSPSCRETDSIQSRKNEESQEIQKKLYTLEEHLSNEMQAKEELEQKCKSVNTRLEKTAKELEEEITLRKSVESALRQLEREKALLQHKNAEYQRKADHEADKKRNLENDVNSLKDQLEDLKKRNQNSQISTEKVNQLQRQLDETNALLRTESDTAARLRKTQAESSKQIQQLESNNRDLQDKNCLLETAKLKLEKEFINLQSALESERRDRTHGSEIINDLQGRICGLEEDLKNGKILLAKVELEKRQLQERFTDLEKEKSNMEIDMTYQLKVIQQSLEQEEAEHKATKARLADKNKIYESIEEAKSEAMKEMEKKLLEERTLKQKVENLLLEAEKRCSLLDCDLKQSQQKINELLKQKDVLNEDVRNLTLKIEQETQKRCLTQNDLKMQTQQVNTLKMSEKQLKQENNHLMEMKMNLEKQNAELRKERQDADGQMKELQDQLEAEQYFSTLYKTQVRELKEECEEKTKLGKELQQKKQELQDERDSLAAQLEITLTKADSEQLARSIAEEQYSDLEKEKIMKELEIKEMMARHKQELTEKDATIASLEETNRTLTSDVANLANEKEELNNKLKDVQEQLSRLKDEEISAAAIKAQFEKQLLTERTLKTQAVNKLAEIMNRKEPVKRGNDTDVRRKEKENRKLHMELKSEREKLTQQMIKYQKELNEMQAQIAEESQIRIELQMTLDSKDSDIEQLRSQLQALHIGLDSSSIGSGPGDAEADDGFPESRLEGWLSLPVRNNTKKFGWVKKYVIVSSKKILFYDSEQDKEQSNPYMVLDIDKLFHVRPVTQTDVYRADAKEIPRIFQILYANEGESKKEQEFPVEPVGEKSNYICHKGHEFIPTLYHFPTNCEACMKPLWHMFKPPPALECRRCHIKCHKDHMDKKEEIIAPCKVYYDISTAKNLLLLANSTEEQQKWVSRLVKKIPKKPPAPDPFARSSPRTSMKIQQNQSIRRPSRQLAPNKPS

[17] = target: T1, cAMP-dependent protein kinase catalytic subunit alpha; experiment: Inhibition of ARC-1063 fluorescent probe binding to recombinant human PKAC-alpha incubated for 22 hrs by time-gated luminescence intensity based displacement assay
[18] = target: T1, cAMP-dependent protein kinase catalytic subunit alpha; experiment: Irreversible inhibition of ARC-1063 fluorescent probe binding to recombinant human PKAC-alpha incubated for 22 hrs followed by probe addition at 20 nM and further incubated for 1 hr by time-gated luminescence intensity based displacement assay
[19] = target: T1, cAMP-dependent protein kinase catalytic subunit alpha; experiment: Binding affinity to human recombinant PKACalpha assessed as compound-protein adduct formation by measuring half life at 30 degreeC
[20] = GSH reactivity in potassium phosphate buffer at pH 7.4 assessed as half life at 0.15 mM at 37 degreeC measured for 30 to 60 mins by HPLC-MS analysis; format: physicochemical; conditions: potassium phosphate buffer with GSH, time 30-60 min
[21] = Drug degradation in phosphate buffer at pH 7.4 assessed as half life at 0.15 mM at 37 degreeC measured for 30 to 60 mins by HPLC-MS analysis; format: ADME; conditions: time 30-60 min
[22] = target: T1, cAMP-dependent protein kinase catalytic subunit alpha; experiment: Binding affinity to human recombinant PKAC-alpha at Cys199 residue assessed as compound-protein adduct formation by measuring mass difference at 3.5 uM incubated for 2 hrs by LC-MS/MS analysis
[23] = Drug degradation in phosphate buffer at pH 7.4 assessed as half life at 0.15 mM at 30 degreeC measured for 30 to 60 mins by HPLC-MS analysis; format: ADME; conditions: time 30-60 min
[24] = GSH reactivity in potassium phosphate buffer at pH 7.4 assessed as half life at 0.15 mM at 30 degreeC measured for 30 to 60 mins by HPLC-MS analysis; format: physicochemical; conditions: potassium phosphate buffer with GSH, time 30-60 min

Row | Kinact [1] | Activity [2] | Ki [3] [nM] | Kinact [4] | IC50 [11] [nM] | T1/2 [14] [min] | IC50 [17] [nM] | IC50 [18] [nM] | T1/2 [19] [min] | SMILES | half-life at 150 µM [20] [min] | also measured
1 | 4.2 10^-4/s | Tde | 0.0068 | 5.1 10^-4/s | – | – | – | – | – | CC[C@H](C)[C@H](NC(=O)CCC(=O)N[C@@H](CCCCNC(=O)[C@@H](CCCNC(=N)N)NC(=O)CCCCCCCC(=O)N1CCN(c2ncnc3[nH]ccc23)CC1)C(=O)N[C@H](CCCNC(=N)N)C(=O)N[C@H](CCCNC(=N)N)C(=O)N[C@H](CCCNC(=N)N)C(N)=O)C(=O)NCC(=O)CF | – | –
2 | – | – | – | – | 24 | 4.5 | – | – | – | CC[C@H](C)[C@H](NC(=O)CCC(=O)N[C@@H](CCCCNC(=O)[C@@H](CCCNC(=N)N)NC(=O)CCCCCCCC(=O)N1CCN(c2ncnc3[nH]ccc23)CC1)C(=O)N[C@H](CCCNC(=N)N)C(=O)N[C@H](CCCNC(=N)N)C(N)=O)C(=O)NCC(C)=O | – | Activity [5]: 9%; K [6]: 1.4 10^8/M/s; Activity [7]: 8%; Activity [8]: 102%; Activity [9]: 93%; Activity [10]: 2%; Kd [12]: 0.019 nM; Ratio [13]: 200; Activity [15]: 21%; Activity [16]: 8%
3 | – | – | – | – | 400 | – | 500 | 5300 | – | N=C(N)NCCC[C@@H](NC(=O)CCCCCNC(=O)[C@@H](CCCNC(=N)N)NC(=O)CCCCCCCC(=O)N1CCN(c2ncnc3[nH]ccc23)CC1)C(N)=O | – | –
4 | – | Tde | 0.63 | 7.7 10^-5/s | 1200 | > 150 | 500 | 800 | 151 | CC[C@H](C)[C@H](NC(=O)CCC(=O)N[C@@H](CCCCNC(=O)[C@@H](CCCNC(=N)N)NC(=O)CCCCCCCC(=O)N1CCN(c2ncnc3[nH]ccc23)CC1)C(=O)N[C@H](CCCNC(=N)N)C(N)=O)C(=O)NCC(=O)CF | – | –
5 | – | – | – | – | – | – | – | – | – | NC(=O)CF [MONOFLUOROACETAMIDE] | > 4200 | –
6 | 5.8 10^-4/s | Tde | 0.023 | 6.1 10^-4/s | – | 19 | – | – | 19.2 | CC[C@H](C)[C@H](NC(=O)CCC(=O)N[C@@H](CCCCNC(=O)[C@@H](CCCNC(=N)N)NC(=O)CCCCCCCC(=O)N1CCN(c2ncnc3[nH]ccc23)CC1)C(=O)N[C@H](CCCNC(=N)N)C(=O)N[C@H](CCCNC(=N)N)C(N)=O)C(=O)NCC(=O)CF | 22.2 | half-life at 150 µM [21]: 57 min; Activity [22]: Active; half-life at 150 µM [23]: 78.6 min; half-life at 150 µM [24]: 44.4 min
